# Like-named read-outs stand apart in the source and are kept apart here.
# Columns and labels:
# E. coli GC 2203 = test: MIC, broth microdilution; details: Escherichia coli
# S. pneumoniae* GC 4465 = test: MIC, broth microdilution; details: Streptococcus pneumoniae
# P. aeruginosa GC 2214 = test: MIC, broth microdilution; details: Pseudomonas aeruginosa
# S. aureus GC 6466 = test: MIC, broth microdilution; details: Staphylococcus aureus
# E. faecalis GC 2242 = test: MIC, broth microdilution; details: Enterococcus faecalis
# S. aureus GC 1131 = test: MIC, broth microdilution; details: Staphylococcus aureus
# E. coli GC 2232 = test: MIC, broth microdilution; details: Escherichia coli
# E. faecalis GC 2267 = test: MIC, broth microdilution; details: Enterococcus faecalis
# S. pneumoniae+ GC 4465 = test: MIC, broth microdilution; details: Streptococcus pneumoniae
# Staph. aureus Smith = test: In vivo activity (oral, iv; ED50) against Staph. aureus Smith in mice
# Description: Representative examples of compounds of Formula I were tested for the oral efficacy using S. aureus Smith in mice.
# S. aureus GC 4536 = test: MIC, broth microdilution; details: Staphylococcus aureus
# Description: (§1) Antimicrobial susceptibility testing. The in vitro activities of the antibiotics are determined by the broth microdilution method as recommended by the National Committee for Clinical Laboratory Standards (NCCLS) (1). Mueller-Hinton II broth (MHBII)(BBL Cockeysville, Md.) is the medium employed in the testing procedures. Microtiter plates containing serial dilutions of each antimicrobial agent are inoculated with each organism to yield the appropriate density (10^5 CFU/ml) in a 100 μl final volume. The plates are incubated for 18-22 hours at 35° C. in ambient air.
# (§2) Representative compounds were first incubated in mouse serum for an hour prior to the in vitro testing against a panel of selected gram-positive and gram-negative bacteria strains. All compounds were also pre-incubated in water for an hour prior to testing as control. Representative compounds of Formula I were incubated in human serum prior to MIC determination.
# E. coli GC 2234 = test: MIC, broth microdilution; details: Escherichia coli
# E. coli GC 4560 = test: MIC, broth microdilution; details: Escherichia coli
# E. coli GC 2231 = test: MIC, broth microdilution; details: Escherichia coli
# S. aureus GC 2216 = test: MIC, broth microdilution; details: Staphylococcus aureus
# Description: Antimicrobial susceptibility testing. The in vitro activities of the antibiotics are determined by the broth microdilution method as recommended by the National Committee for Clinical Laboratory Standards (NCCLS) (1). Mueller-Hinton II broth (MHBII)(BBL Cockeysville, Md.) is the medium employed in the testing procedures. Microtiter plates containing serial dilutions of each antimicrobial agent are inoculated with each organism to yield the appropriate density (10^5 CFU/ml) in a 100 μl final volume. The plates are incubated for 18-22 hours at 35° C. in ambient air. […] Standard Pharmacological Test Procedures
# Presented in Tables I-XIII are representative compounds of Formula I which were evaluated against a panel of 40 selected gram-positive and gram-negative bacteria strains by pre-incubation in water, mouse serum or human serum. Representative compounds were first incubated in mouse serum for an hour prior to the in vitro testing against a panel of selected gram-positive and gram-negative bacteria strains. All compounds were also pre-incubated in water for an hour prior to testing as control. Representative compounds of Formula I were incubated in human serum prior to MIC determination.
# S. aureus GC 6467 = test: MIC, broth microdilution; details: Staphylococcus aureus
# S. epidermidis GC 4935 = test: MIC, broth microdilution; details: Staphylococcus epidermidis
# E. coli GC 6465 = test: MIC, broth microdilution; details: Escherichia coli
# E. coli GC 2272 = test: MIC, broth microdilution; details: Escherichia coli
# Description: as §1, §2
# E. coli GC 4559 = test: MIC, broth microdilution; details: Escherichia coli
# [1] = read-out: MINIMAL INHIBITORY CONCENTRATION MIC, pre-incubated in Human Serum
# [2] = read-out: MINIMAL INHIBITORY CONCENTRATION MIC, pre-incubated in Mouse Serum
# [3] = read-out: MINIMAL INHIBITORY CONCENTRATION MIC, pre-incubated in Water
smiles,measurement,setting,value
Cc1ccc(C(=O)OCOC(=O)N(CC(=O)Nc2cc(N(C)C)c3c(c2O)C(=O)C2=C(O)[C@]4(O)C(=O)C(C(N)=O)=C(O)[C@@H](N(C)C)[C@@H]4C[C@@H]2C3)C(C)(C)C)cc1 [Example 47],MIC,"E. coli GC 2203; GC2203, read-out: MINIMAL INHIBITORY CONCENTRATION MIC, pre-incubated in Human Serum",32 µg/mL
same,MIC,"E. coli GC 2203; GC2203, read-out: MINIMAL INHIBITORY CONCENTRATION MIC, pre-incubated in Mouse Serum",1 µg/mL
same,MIC,"E. coli GC 2203; GC2203, read-out: MINIMAL INHIBITORY CONCENTRATION MIC, pre-incubated in Water",> 64 µg/mL
same,MIC,S. pneumoniae* GC 4465; [1],0.5 µg/mL
same,MIC,S. pneumoniae* GC 4465; [2],0.25 µg/mL
same,MIC,S. pneumoniae* GC 4465; [3],0.5 µg/mL
same,MIC,"P. aeruginosa GC 2214; GC2214, read-out: MINIMAL INHIBITORY CONCENTRATION MIC, pre-incubated in Human Serum",> 64 µg/mL
same,MIC,"P. aeruginosa GC 2214; GC2214, read-out: MINIMAL INHIBITORY CONCENTRATION MIC, pre-incubated in Mouse Serum",32 µg/mL
same,MIC,"P. aeruginosa GC 2214; GC2214, read-out: MINIMAL INHIBITORY CONCENTRATION MIC, pre-incubated in Water",> 64 µg/mL
same,MIC,"S. aureus GC 6466; GC6466, read-out: MINIMAL INHIBITORY CONCENTRATION MIC, pre-incubated in Human Serum",1 µg/mL
same,MIC,"S. aureus GC 6466; GC6466, read-out: MINIMAL INHIBITORY CONCENTRATION MIC, pre-incubated in Mouse Serum",1 µg/mL
same,MIC,"S. aureus GC 6466; GC6466, read-out: MINIMAL INHIBITORY CONCENTRATION MIC, pre-incubated in Water",2 µg/mL
same,MIC,"E. faecalis GC 2242; GC2242, read-out: MINIMAL INHIBITORY CONCENTRATION MIC, pre-incubated in Human Serum",4 µg/mL
same,MIC,"E. faecalis GC 2242; GC2242, read-out: MINIMAL INHIBITORY CONCENTRATION MIC, pre-incubated in Mouse Serum",1 µg/mL
same,MIC,"E. faecalis GC 2242; GC2242, read-out: MINIMAL INHIBITORY CONCENTRATION MIC, pre-incubated in Water",4 µg/mL
same,MIC,"S. aureus GC 1131; GC1131, read-out: MINIMAL INHIBITORY CONCENTRATION MIC, pre-incubated in Human Serum",2 µg/mL
same,MIC,"S. aureus GC 1131; GC1131, read-out: MINIMAL INHIBITORY CONCENTRATION MIC, pre-incubated in Mouse Serum",1 µg/mL
same,MIC,"S. aureus GC 1131; GC1131, read-out: MINIMAL INHIBITORY CONCENTRATION MIC, pre-incubated in Water",2 µg/mL
same,MIC,"E. coli GC 2232; GC2232, read-out: MINIMAL INHIBITORY CONCENTRATION MIC, pre-incubated in Human Serum",16 µg/mL
same,MIC,"E. coli GC 2232; GC2232, read-out: MINIMAL INHIBITORY CONCENTRATION MIC, pre-incubated in Mouse Serum",1 µg/mL
same,MIC,"E. coli GC 2232; GC2232, read-out: MINIMAL INHIBITORY CONCENTRATION MIC, pre-incubated in Water",> 64 µg/mL
same,MIC,"E. faecalis GC 2267; GC2267, read-out: MINIMAL INHIBITORY CONCENTRATION MIC, pre-incubated in Human Serum",4 µg/mL
same,MIC,"E. faecalis GC 2267; GC2267, read-out: MINIMAL INHIBITORY CONCENTRATION MIC, pre-incubated in Mouse Serum",1 µg/mL
same,MIC,"E. faecalis GC 2267; GC2267, read-out: MINIMAL INHIBITORY CONCENTRATION MIC, pre-incubated in Water",4 µg/mL
same,MIC,S. pneumoniae+ GC 4465; [1],2 µg/mL
same,MIC,S. pneumoniae+ GC 4465; [2],2 µg/mL
same,MIC,S. pneumoniae+ GC 4465; [3],4 µg/mL
same,ED50,"Staph. aureus Smith; Staphylococcus aureus, in Mus musculus, iv, read-out: ED50 SIV (Staph aureus Smith)",1.2 mg/kg
same,ED50,"Staph. aureus Smith; Staphylococcus aureus, in Mus musculus, po, read-out: ED50 SOD (Staph aureus Smith)",14 mg/kg
same,ED50,"Staph. aureus Smith; Staphylococcus aureus, in Mus musculus, po, read-out: ED50 Staph Smith SOD",14 mg/kg
same,ED50,"Staph. aureus Smith; iv, read-out: ED50 Staph Smith SIV",1.2 mg/kg
same,MIC,"S. aureus GC 4536; GC4536, read-out: MINIMAL INHIBITORY CONCENTRATION MIC, pre-incubated in Human Serum",1 µg/mL
same,MIC,"S. aureus GC 4536; GC4536, read-out: MINIMAL INHIBITORY CONCENTRATION MIC, pre-incubated in Mouse Serum",1 µg/mL
same,MIC,"S. aureus GC 4536; GC4536, read-out: MINIMAL INHIBITORY CONCENTRATION MIC, pre-incubated in Water",4 µg/mL
same,MIC,"E. coli GC 2234; GC2234, read-out: MINIMAL INHIBITORY CONCENTRATION MIC, pre-incubated in Human Serum",16 µg/mL
same,MIC,"E. coli GC 2234; GC2234, read-out: MINIMAL INHIBITORY CONCENTRATION MIC, pre-incubated in Mouse Serum",1 µg/mL
same,MIC,"E. coli GC 2234; GC2234, read-out: MINIMAL INHIBITORY CONCENTRATION MIC, pre-incubated in Water",> 64 µg/mL
same,MIC,"E. coli GC 4560; GC4560, read-out: MINIMAL INHIBITORY CONCENTRATION MIC, pre-incubated in Human Serum",4 µg/mL
same,MIC,"E. coli GC 4560; GC4560, read-out: MINIMAL INHIBITORY CONCENTRATION MIC, pre-incubated in Mouse Serum",1 µg/mL
same,MIC,"E. coli GC 4560; GC4560, read-out: MINIMAL INHIBITORY CONCENTRATION MIC, pre-incubated in Water",16 µg/mL
same,MIC,"E. coli GC 2231; GC2231, read-out: MINIMAL INHIBITORY CONCENTRATION MIC, pre-incubated in Human Serum",32 µg/mL
same,MIC,"E. coli GC 2231; GC2231, read-out: MINIMAL INHIBITORY CONCENTRATION MIC, pre-incubated in Mouse Serum",1 µg/mL
same,MIC,"E. coli GC 2231; GC2231, read-out: MINIMAL INHIBITORY CONCENTRATION MIC, pre-incubated in Water",> 64 µg/mL
same,MIC,"S. aureus GC 2216; GC2216, read-out: MINIMAL INHIBITORY CONCENTRATION MIC, pre-incubated in Human Serum",1 µg/mL
same,MIC,"S. aureus GC 2216; GC2216, read-out: MINIMAL INHIBITORY CONCENTRATION MIC, pre-incubated in Mouse Serum",1 µg/mL
same,MIC,"S. aureus GC 2216; GC2216, read-out: MINIMAL INHIBITORY CONCENTRATION MIC, pre-incubated in Water",2 µg/mL
same,MIC,"S. aureus GC 6467; GC6467, read-out: MINIMAL INHIBITORY CONCENTRATION MIC, pre-incubated in Human Serum",2 µg/mL
same,MIC,"S. aureus GC 6467; GC6467, read-out: MINIMAL INHIBITORY CONCENTRATION MIC, pre-incubated in Mouse Serum",1 µg/mL
same,MIC,"S. aureus GC 6467; GC6467, read-out: MINIMAL INHIBITORY CONCENTRATION MIC, pre-incubated in Water",4 µg/mL
same,MIC,"S. epidermidis GC 4935; GC4935, read-out: MINIMAL INHIBITORY CONCENTRATION MIC, pre-incubated in Human Serum",4 µg/mL
same,MIC,"S. epidermidis GC 4935; GC4935, read-out: MINIMAL INHIBITORY CONCENTRATION MIC, pre-incubated in Mouse Serum",2 µg/mL
same,MIC,"S. epidermidis GC 4935; GC4935, read-out: MINIMAL INHIBITORY CONCENTRATION MIC, pre-incubated in Water",4 µg/mL
same,MIC,"E. coli GC 6465; GC6465, read-out: MINIMAL INHIBITORY CONCENTRATION MIC, pre-incubated in Human Serum",> 64 µg/mL
same,MIC,"E. coli GC 6465; GC6465, read-out: MINIMAL INHIBITORY CONCENTRATION MIC, pre-incubated in Mouse Serum",2 µg/mL
same,MIC,"E. coli GC 6465; GC6465, read-out: MINIMAL INHIBITORY CONCENTRATION MIC, pre-incubated in Water",> 64 µg/mL
same,MIC,"E. coli GC 2272; GC2272, read-out: MINIMAL INHIBITORY CONCENTRATION MIC, pre-incubated in Human Serum",16 µg/mL
same,MIC,"E. coli GC 2272; GC2272, read-out: MINIMAL INHIBITORY CONCENTRATION MIC, pre-incubated in Mouse Serum",1 µg/mL
same,MIC,"E. coli GC 2272; GC2272, read-out: MINIMAL INHIBITORY CONCENTRATION MIC, pre-incubated in Water",> 64 µg/mL
same,MIC,"E. coli GC 4559; GC4559, read-out: MINIMAL INHIBITORY CONCENTRATION MIC, pre-incubated in Human Serum",64 µg/mL
same,MIC,"E. coli GC 4559; GC4559, read-out: MINIMAL INHIBITORY CONCENTRATION MIC, pre-incubated in Mouse Serum",2 µg/mL
same,MIC,"E. coli GC 4559; GC4559, read-out: MINIMAL INHIBITORY CONCENTRATION MIC, pre-incubated in Water",> 64 µg/mL
